Test results reported in US7964613B2 (Asahi Kasei Pharma Corporation, priority 2007, dated 2011).

Experiments:
TNF-α production = assay: Inhibitory effect on TNF-α production in mice (LPS); type: in vivo, BALB/c mice; conditions: Mus musculus, 1.5 h; oral administration of 30 mg/kg, LPS 5 μg i.p. 60 minutes later, plasma after 90 minutes; read-out: TNF-α production suppressing action
Description: BALB/c mice (Japan CRJ, famale) were used as experimental animals. Each test compound was dissolved in distilled water at a concentration suitable for the examination. The weight of each mouse was measured, a test compound solution was orally administered in a volume corresponding to 10 ml/kg, and only distilled water was administered to the control group. Each group consisted of five to seven animals. LPS was dissolved in physiological saline, and intraperitoneally administered to each mouse in an amount of 5 μg. The test compound was administered first, and LPS (lipopolysaccharide, Sigma) was administered 60 minutes later. After 90 minutes, blood was collected from the abdominal large vein in the presence of heparin, and plasma was obtained by centrifugation. TNF-α content in the plasma was measured by using the ELISA method.

[1] = system: rabbit normal intraocular pressure; assay: Intraocular pressure reducing action; type: in vivo, Japanese white rabbit; conditions: Oryctolagus cuniculus, topical; 3 mM aqueous solution, 50 μl to the left eye; max IOP reduction (2, 4, 6 hours) / value immediately before administration; read-out: intraocular pressure reducing degree
Outline: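 Japanese white rabbits (~2 kg) under topical anaesthesia received 50 μl of a 3 mM aqueous test solution in the left eye, right eye untreated. IOP read by tonometer before and at 2, 4, 6 h; maximal left–right difference divided by pre-dose IOP ×100 gives % reduction.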

human ROCK1 = molecular target: T1, human ROCK1 (Homo sapiens, UniProt Q13464); assay: Measurement of Rho kinase inhibitory activity (ELISA of MBS phosphorylation); type: biochemical; conditions: human ROCK1, MBS substrate, 100 μM ATP, 30° C. for 10 minutes
T1 construct: His tag (N); host or cells: insect cells (Sf9)
T1 sequence (Q13464 1-727): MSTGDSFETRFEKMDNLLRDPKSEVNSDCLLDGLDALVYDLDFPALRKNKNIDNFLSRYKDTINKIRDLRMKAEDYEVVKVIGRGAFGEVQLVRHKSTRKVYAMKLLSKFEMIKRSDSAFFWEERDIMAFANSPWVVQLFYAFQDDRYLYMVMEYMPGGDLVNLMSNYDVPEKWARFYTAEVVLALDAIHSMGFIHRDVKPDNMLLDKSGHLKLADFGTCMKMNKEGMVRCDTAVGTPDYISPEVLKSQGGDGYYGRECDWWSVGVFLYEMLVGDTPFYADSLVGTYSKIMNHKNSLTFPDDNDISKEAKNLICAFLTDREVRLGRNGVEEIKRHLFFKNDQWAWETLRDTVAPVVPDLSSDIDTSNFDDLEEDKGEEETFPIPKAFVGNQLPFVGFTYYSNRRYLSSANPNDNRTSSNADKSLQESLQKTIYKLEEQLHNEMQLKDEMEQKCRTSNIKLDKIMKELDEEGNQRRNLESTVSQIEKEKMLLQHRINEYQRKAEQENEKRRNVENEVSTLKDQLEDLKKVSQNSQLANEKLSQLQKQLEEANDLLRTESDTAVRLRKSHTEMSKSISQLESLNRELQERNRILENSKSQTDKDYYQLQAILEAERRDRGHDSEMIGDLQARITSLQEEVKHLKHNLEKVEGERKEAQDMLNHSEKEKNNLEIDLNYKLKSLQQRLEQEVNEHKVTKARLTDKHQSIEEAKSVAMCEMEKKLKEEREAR
Description: In this test, human ROCK1 was used as Rho kinase, MBS (myosin binding subunit, subunit constituting myosin phosphatase) was used as the substrate of Rho kinase, and an anti-phosphorylated MBS antibody was used for detection of phosphorylation. The activity for inhibiting Rho kinase was determined by measuring phosphorylation of MBS by the Rho kinase by ELISA in the presence of an appropriately diluted test compound. As the Rho kinase used, a recombinant protein (N-terminal His-tagged recombinant human ROCK1 residues (1Met-[…])) was used, which was produced in insect cells (Sf9) using a sequence (1-727), of which activity was confirmed in the paper of Ishizaki et al. (Ishizaki, T. et al., FEBS Letters, 404, pp 118-124, 1997), based on the sequence of human ROCK1 (p 160 ROCK) described in the report of Ishizaki et al. (Ishizaki, T. et al., EMBO J., 15, pp 1885-1893, 1996). Further, as the MBS protein and anti-phosphorylated MBS antibody, those prepared according to the method described in the paper of Ito et al. (Ito, K et al., J. Physiol., 546, pp 823-836, 2003) were used.
A solution of MBS (Asahi Kasei Pharma, lot No, 040814n7-10) diluted with PBS to an appropriate concentration was added to an ELISA plate (Maxisorp, Nunc), and left, stand overnight at 4° C., and then the wells were washed twice with a washing solution (WB, washing buffer, 0.1% Tween 20/PBS). To the wells were added 1% bovine serum albumin (Sigma)/PBS, and left for 1 to 3 hours, and then the wells were washed 5 times with WB to prepare a substrate-immobilized plate. Onto this plate, a reaction mixture (5 mM MgSO4/0.1 M NaCl/20 mM HEPES (pH 7.5)/100 μM ATP/5 mM DTT), a test compound, and appropriately diluted human ROCK1 (Asahi Kasei Pharma, lot No, 030126.120-22) were added, and then reacted at 30° C. for 10 minutes. Then, 0.2 M EDTA (pH 7.5) was added to terminate the reaction, and the wells were washed 5 times with WB. A rabbit anti-phosphorylated MBS antibody solution (Asahi Kasei Pharma, lot No, 122676431) diluted 10,000 times with WB containing 1% bovine serum albumin was added to the wells, and after the reaction for 1 hour, the wells were washed 5 times with WB. Goat anti-rabbit IgG-HRP (Zymed) diluted 1,000 times with WB containing 1% bovine serum albumin was added to the wells as the secondary detection antibody and the mixture was reacted for 1 hour, and then the wells were washed 5 times with WB. An OPD (o-phenylenediamine) solution (1 mg/ml OPD, Sigma), 5.1 g/l of citric acid monohydrate, and 18.4 g/l of Na2HPO4.12H2O were added to the wells to develop color, […] was added 5 minutes later to terminate the color development, and absorbance was measured at 490 nm.
The inhibition ratio was calculated as follows. Inhibition ratio(%)=[…]
Further, the inhibition ratio was calculated with changing the concentration of the test compound, and a compound concentration providing an inhibition ratio of 50% was obtained as IC50.

Row | IC50 (human ROCK1) | SMILES | inhibition in vivo at 30 mg/kg (TNF-α production) | inhibition in vivo at 3000 µM [1]
1 | – | N[C@H]1CCCN(S(=O)(=O)c2cccc3cncc(Br)c23)C1 [Example 2-1, (S)-3-Amino-1-(4-bromo-5-isoquinolinesulfonyl)piperidine] | ≥ 50% | –
2 | – | CN[C@H]1CCN(S(=O)(=O)c2cccc3cncc(F)c23)C1 [Example 18-3, (S)-1-(4-Fluoro-5-isoquinolinesulfonyl)-3-(methylamino)pyrrolidine] | ≥ 50% | ≥ 20%
3 | 1 to 3 µM | Cc1cncc2cccc(S(=O)(=O)N3CC[C@H](NC4CCCC4)C3)c12 [Example 8-29] | – | 5 to 10%
4 | < 1 µM | NOCC(=O)N[C@H]1CCN(S(=O)(=O)c2cccc3cncc(Cl)c23)C1 [Example 101, (S)-3-[2-(Aminooxy)acetyl]amino-1-(4-chloro-5-isoquinolinesulfonyl)pyrrolidine] | – | ≥ 20%
5 | – | CN[C@H]1CCN(S(=O)(=O)c2cccc3c(O)ncc(F)c23)C1 [Example 37-1, (S)-1-(1-Hydroxy-4-fluoro-5-isoquinolinesulfonyl)-3-(methylamino)pyrrolidine] | ≥ 30% | –
6 | 1 to 3 µM | O=C(N[C@H]1CCN(S(=O)(=O)c2cccc3cncc(Cl)c23)C1)C1COCCO1 (stereo partly drawn) [Example 109, N—[(S)-1-(4-Chloro-5-isoquinolinesulfonyl)pyrrolidin-3-yl]-1,4-dioxane-2-carboxamide] | – | ≥ 20%
7 | 1 to 3 µM | CC(N)C1CCN(S(=O)(=O)c2cccc3cncc(Cl)c23)C1 (stereo not drawn) [Example 45, 3-(1-Aminoethyl)-1-(4-chloro-5-isoquinolinesulfonyl)pyrrolidine] | – | 5 to 10%
8 | < 1 µM | COc1ccc(CN[C@H]2CCN(S(=O)(=O)c3cccc4cncc(F)c34)C2)cc1 [Example 18-7] | – | 5 to 10%
9 | < 1 µM | CCc1cncc2cccc(S(=O)(=O)N3CC[C@H](N)C3)c12 [Example 23-1, (S)-3-Amino-1-(4-ethyl-5-isoquinolinesulfonyl)pyrrolidine] | – | 10 to 20%
10 | 1 to 3 µM | CNCC(=O)N[C@H]1CCN(S(=O)(=O)c2cccc3cncc(Cl)c23)C1 [Example 51-1, (S)-3-(2-Methylaminoacetyl)amino-1-(4-chloro-5-isoquinolinesulfonyl)pyrrolidine] | – | 10 to 20%
11 | < 1 µM | C=Cc1cncc2cccc(S(=O)(=O)N3CC[C@H](N)C3)c12 [Example 9-1, (S)-3-Amino-1-(4-vinyl-5-isoquinolinesulfonyl)pyrrolidine] | – | ≥ 20%
12 | < 1 µM | Cn1cccc1CN[C@H]1CCN(S(=O)(=O)c2cccc3cncc(Br)c23)C1 [Example 1-20] | – | 10 to 20%
13 | < 1 µM | C#Cc1cncc2cccc(S(=O)(=O)N3CC[C@H](NCc4ccc(OC)cc4)C3)c12 [Example 10-7] | – | 10 to 20%
14 | 1 to 3 µM | Cc1nc(CN[C@H]2CCN(S(=O)(=O)c3cccc4cncc(Br)c34)C2)c[nH]1 [Example 1-19] | – | 5 to 10%
15 | 1 to 3 µM | Nc1cncc2cccc(S(=O)(=O)N3CC[C@H](N)C3)c12 [Example 12-1, (S)-3-Amino-1-(4-amino-5-isoquinolinesulfonyl)pyrrolidine] | – | 10 to 20%
16 | < 1 µM | CCN[C@H]1CCN(S(=O)(=O)c2cccc3cncc(C)c23)C1 [Example 8-4] | – | 10 to 20%

Row | IC50 (human ROCK1) | SMILES | inhibition in vivo at 30 mg/kg (TNF-α production) | inhibition in vivo at 3000 µM [1]
17 | < 1 µM | N[C@@H]1CCN(S(=O)(=O)c2cccc3cncc(Cl)c23)C1 [Example 19-2, (R)-3-Amino-1-(4-chloro-5-isoquinolinesulfonyl)pyrrolidine] | – | ≥ 20%
18 | 1 to 3 µM | O=C(COc1cccnc1)N[C@H]1CCN(S(=O)(=O)c2cccc3cncc(Cl)c23)C1 [Example 104, (S)-3-[2-(3-Pyridyloxy)acetyl]amino-1-(4-chloro-5-isoquinolinesulfonyl)pyrrolidine] | – | ≥ 20%
19 | < 1 µM | Cc1cncc2cccc(S(=O)(=O)N3CCC[C@@H](N)C3)c12 [Example 22-2, (R)-3-Amino-1-(4-methyl-5-isoquinolinesulfonyl)piperidine] | – | 10 to 20%
20 | 1 to 3 µM | NCCN[C@H]1CCN(S(=O)(=O)c2cccc3cncc(Cl)c23)C1 [Example 19-32] | – | ≥ 20%
21 | < 1 µM | Cc1cncc2cccc(S(=O)(=O)N3CC[C@H](NCCc4ccccc4)C3)c12 [Example 8-37] | – | 5 to 10%
22 | < 1 µM | Cc1cncc2cccc(S(=O)(=O)N3CC[C@H](NCc4cccn4C)C3)c12 [Example 8-21] | – | 10 to 20%
23 | < 1 µM | Cc1cncc2cccc(S(=O)(=O)N3CC[C@H](NCCCNC(=O)Nc4ccccc4)C3)c12 [Example 65-1, (S)—N-[3-[1-(4-Methyl-5-isoquinolinesulfonyl)pyrrolidin-3-yl]aminopropyl],N′-phenylurea] | – | 10 to 20%
24 | < 1 µM | N[C@H]1CCN(S(=O)(=O)c2cccc3c(O)ncc(Br)c23)C1 [Example 7-1, (S)-3-Amino-1-(1-hydroxy-4-bromo-5-isoquinolinesulfonyl)pyrrolidine] | – | ≥ 20%
25 | 1 to 3 µM | NCC1CN(S(=O)(=O)c2cccc3cncc(Cl)c23)C1 [Example 60, 3-(Aminomethyl)-1-(4-chloro-5-isoquinolinesulfonyl)azetidine] | – | 5 to 10%
26 | < 1 µM | Cc1cncc2cccc(S(=O)(=O)N3CCC[C@H](N)C3)c12 [Example 22-1, (S)-3-Amino-1-(4-methyl-5-isoquinolinesulfonyl)piperidine] | – | 10 to 20%
27 | 1 to 3 µM | O=C(CCN1CCCCC1)N[C@H]1CCN(S(=O)(=O)c2cccc3cncc(Cl)c23)C1 [Example 80, (S)-3-[3-(Piperidin-1-yl)propionyl]amino-1-(4-chloro-5-isoquinolinesulfonyl)pyrrolidine] | – | 5 to 10%
28 | < 1 µM | NCCN[C@H]1CCN(S(=O)(=O)c2cccc3cncc(Br)c23)C1 [Example 1-31] | – | 10 to 20%
29 | 1 to 3 µM | CN[C@@H]1CCN(S(=O)(=O)c2cccc3c(O)ncc(Cl)c23)C1 [Example 36-2, (R)-1-(1-Hydroxy-4-chloro-5-isoquinolinesulfonyl)-3-(methylamino)pyrrolidine] | – | 10 to 20%
30 | 1 to 3 µM | O=C(COc1ccccc1)N[C@H]1CCN(S(=O)(=O)c2cccc3cncc(Cl)c23)C1 [Example 103, (S)-3-(2-Phenoxyacetyl)amino-1-(4-chloro-5-isoquinolinesulfonyl)pyrrolidine] | – | ≥ 20%
31 | < 1 µM | N[C@H]1CCN(S(=O)(=O)c2cccc3c(O)ncc(Cl)c23)C1 [Example 30-1, (S)-3-Amino-1-(1-hydroxy-4-chloro-5-isoquinolinesulfonyl)pyrrolidine] | – | ≥ 20%
